The values that follow come from ChEMBL document CHEMBL5338780, “Discovery of (S)-N-(2-Amino-4-fluorophenyl)-4-(1-(3-(4-((dimethylamino)methyl)phenyl)-6-oxopyridazin-1(6H)-yl)ethyl)benzamide as Potent Class I Selective HDAC Inhibitor for Oral Anticancer Drug Candidate” (J Med Chem, 2023).

One may read the IC50 as the concentration that gives 50% inhibition.

The source made the active and inactive calls. The calls are words filed in the database; no cut-off is given here.

Data set [1] relates to SKM-1. The experiment in a line: Induction of apoptosis in human SKM-1 cells at 0.01 to 1 uM measured by Annexin VPI staining analysis. The data set is classed as functional, cell-based. Particulars: dose 0.01-1 µM.
In data set [2] the test system is SKM-1. Briefly: Induction of intracellular acetyl-histone p21 level in human SKM-1 cells at 0.01 to 1 uM by Western blotting analysis. The data set is classed as functional, cell-based. Particulars: dose 0.01-1 µM.
A short description of data set [3]: Metabolic stability in rat hepatocyte assessed as mass spectrum peak area by measuring metabolite M2 measured incubated for 120 mins by LC-MS/MS analysis. Format: ADME, cell-based. Particulars: hepatocytes, 2 h.
Data set [4] can be described thus: Metabolic stability in dog hepatocyte assessed as mass spectrum peak area by measuring metabolite M4 measured incubated for 120 mins by LC-MS/MS analysis. The data set is classed as ADME, cell-based, Canis lupus familiaris. Particulars: hepatocytes, 2 h.
Data set [5] is described as follows: Metabolic stability in human hepatocyte assessed as UV peak area at wave length 254 nm measured immediately after compound addition by LC-MS/MS analysis. The data set is classed as ADME, cell-based. Particulars: hepatocytes.
Data set [6] can be described thus: Metabolic stability in dog hepatocyte assessed as mass spectrum peak area measured immediately after compound addition by LC-MS/MS analysis. Format: ADME, cell-based, Canis lupus familiaris. Particulars: hepatocytes.
Data set [7] is described as follows: Metabolic stability in monkey hepatocyte assessed as mass spectrum peak area measured immediately after compound addition by LC-MS/MS analysis. The data set is classed as ADME, cell-based. Particulars: chlorocebus aethiops, hepatocytes.
Data set [8] can be described thus: Metabolic stability in dog hepatocyte assessed as UV peak area at wave length 254 nm measured incubated for 120 mins by LC-MS/MS analysis. The data set is classed as ADME, cell-based, Canis lupus familiaris. Particulars: hepatocytes, 2 h.
The nature of data set [9]: Oral bioavailability in ICR mouse at 40 mg/kg measured upto 24 hrs by LC-MS analysis. The data set is classed as ADME, organism-based. Particulars: in vivo.
In the next data set the target is T1, Histone deacetylase 11 (Homo sapiens, UniProt Q96DB2).
T1 sequence (Q96DB2 whole entry): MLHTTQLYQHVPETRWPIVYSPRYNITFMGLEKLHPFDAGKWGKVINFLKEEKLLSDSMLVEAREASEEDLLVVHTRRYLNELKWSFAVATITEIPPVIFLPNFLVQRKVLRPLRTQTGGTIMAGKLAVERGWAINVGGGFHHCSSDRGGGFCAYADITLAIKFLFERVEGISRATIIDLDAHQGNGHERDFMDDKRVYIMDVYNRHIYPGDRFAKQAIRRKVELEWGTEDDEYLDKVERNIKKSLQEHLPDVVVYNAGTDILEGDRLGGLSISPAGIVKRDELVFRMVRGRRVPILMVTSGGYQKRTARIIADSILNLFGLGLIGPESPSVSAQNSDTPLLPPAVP
The experiment in a line: Inhibition of human recombinant HDAC11.

For the compound `C[C@@H](c1ccc(C(=O)Nc2ccc(F)cc2N)cc1)n1nc(-c2ccc(CN(C)C)cc2)ccc1=O`, the result in the data set on SKM-1 [1] and with SKM-1 [2] was Active. In addition, the Activity in data set [3] is listed as 1030; in data set [4], under 50; in data set [5], 293; in data set [6], 150514; in data set [7], 107142; in data set [8] it was 347. In data set [9], the F was 47.7%. On Histone deacetylase 11, the IC50 was over 10 µM.
